Results reported in patent publication US9279812B2, “Neuregulin-1-based prognosis and therapeutic stratification of colorectal cancer” (UNIVERSITEIT GENT, priority 2011, dated 2016).
Blank lines part the entries; values can stand above or below the molecule they belong to.

Legend:
[1] = system: HCT-8/E11 cells; experiment: Single cell collagen invasion assay, HCT-8/E11; format: cell-based, human; settings: for CM^BM-MSC-induced invasion (invasion index) / CM^BM-MSC-induced morphological response (factor shape): cetuximab 3 μM, lapatinib 1 μM, trastuzumab and pertuzumab 25 μg/ml
Protocol: (§1) Collagen invasion assays were performed as described previously (45). Briefly, 1×10^5 CRC cells were seeded on type I collagen-coated 6-well plates and treated with CM derived from 5×10^5 BM-MSC or T-MC supplemented with DMEM 10% FBS and antibiotics as indicated.
(§2) Morphology and invasion into collagen was analysed after 24 hours and quantified by means of the factor shape ([perimeter]^2/[4πarea]) and invasion index. The number of invasive and noninvasive cells was counted in 10 randomly selected microscopic fields with a 20× objective and 10× eye piece by two blinded observers using an inverted phase-contrast microscope (DMI 3000B; Leica, Wetzlar, Germany). The invasion index was calculated as the ratio of the number of cells that invaded the gel divided by the total number of cells counted in each field. Collagen matrices were fixed in 3% paraformaldehyde for 10 minutes and phalloidin-TRITC (Sigma-Aldrich) staining as described (45). Cells were imaged with a Zeiss 510 META confocal laser-scanning microscope (Carl Zeiss, Micro-imaging Inc., Heidelberg, Germany) using a 488 argon and a 543 HeNe laser. Images were acquired using a Plan Apochromat 63×/1.4 oil DIC or a Plan Apochromat 100×/1.4 oil DIC objective. All the images shown are collapsed z-stacks.

[2] = system: HER3; experiment: Western blot of Y1289 p-HER3 (HER3 activation) in HCT-8/E11 cells; format: cell-based, human; settings: for decrease in CM^BM-MSC-induced HER3 activation (Y1289 p-HER3): HCT-8/E11, CM^BM-MSC 15 minutes, cetuximab 3 μM, lapatinib 1 μM, trastuzumab and pertuzumab 25 μg/ml
Protocol: (§3) Cells were harvested with Laemmli lysis buffer (0.125M Tris-HCl (pH=6.8), 10% glycerol, 2.3% sodium dodecyl sulfate [SDS]). Cell surface proteins were isolated by biotinylation (Pierce). For the detection of phosphorylated proteins, cells were grown at 70% confluence and treated for 15 minutes as indicated. Cells were harvested with NP-40 lysis buffer (1% Nonidet P-40 [NP-40][Sigma-Aldrich], 1% Triton X-100 [Bio-Rad] in phosphate-buffered saline [PBS]) and the following protease inhibitors: aprotinin (10 μg/mL), leupeptin (10 μg/mL) (ICN Biomedicals, Costa Mesa, Calif.), phenylmethylsulfonyl fluoride (1.72 mM), NaF (100 mM), NaVO3 (500 mM), and Na4P2O7 ([…]) (Sigma-Aldrich). Cell lysates (25 μg) and CM (20 μl) were suspended in Laemmli sample buffer and boiled for 5 minutes at 95° C. For immunoprecipitation, cells were harvested with NP-40 lysis buffer, and protease inhibitors. Anti-rabbit antibodies were covalently coupled to sheep anti-rabbit IgG dynabeads (Invitrogen) and then incubated for 2 hours at 4° C. with 500 μg of cell lysate or normal rabbit IgG antibody (R&D Systems) as a negative control. Immunoprecipitates were washed five times with lysis buffer, eluted with 100 μl of Laemmli lysis buffer, and boiled at 95° C. for 5 minutes. Samples were run on NuPAGE 4%-20% Bis-Tris gradient gels (Invitrogen), transferred to polyvinylidene fluoride membranes, blocked in 5% nonfat milk in PBS or 4% bovine serum albumin (BSA) in PBS for phosphorylated proteins with 0.5% Tween-20, and immunostained. Scanning densitometry was carried out with the Quantity One Program (Bio-Rad).

[3] = system: AKT; experiment: Western blot of S473 p-AKT (AKT activation) in HCT-8/E11 cells; format: cell-based, human; settings: for reduction of AKT activation (S473 p-AKT) in CM^BM-MSC-treated cells: HCT-8/E11, CM^BM-MSC 15 minutes, cetuximab 3 μM, lapatinib 1 μM, trastuzumab and pertuzumab 25 μg/ml
Protocol: as §3

[4] = target: HER3 (human) (UniProt P21860); experiment: cell-based or functional assay
[5] = system: HCT-8/E11+BM-MSC xenografts; experiment: s.c. xenografts of HCT-8/E11 cells with BM-MSC in Swiss nu/nu mice; format: in vivo
Protocol: Animal studies were approved by the Local Ethical Committee for Animal Experiments, Faculty of Medicine and Health Sciences, Ghent University, Belgium. Four-week-old female Swiss nu/nu mice (10 animals per group) (Charles River Laboratories, Brussels, Belgium) were inoculated subcutaneously (s.c.) with 10^6 CRC cells (HCT-8/E11, SW480 and HCT 116) either alone or combined with 2×10^6 BM-MSC suspended in 100 μl sterile PBS. To assess the effect of soluble factors on tumorigenesis, mice were inoculated s.c. with 10^6 cancer cells in 100 μl sterile CM derived from 2.5×10^6 BM-MSC, or control medium. For these experiments, intratumoral injection of the CM (50 μl) was performed every three days. […] Tumor volume was estimated by using the equation, V=0.4×a×b^2, where V is the volume, a is the length of the major axis of the tumor, and b is the length of its minor axis. he animals were sacrificed when the tumors were approximately 1-1.5 cm^3, in compliance with regulations for the use of vertebrate animals in research. Primary tumors were extracted, weighted and fixed in 4% buffered formol for 12 hours, followed by a wash with PBS. Fixed tumors were transferred to 70% ethanol until use. Tumors were embedded in paraffin, sectioned and stained with H&E. Immunohistochemistry (IHC) using TUNEL, anti-α-SMA (Biogenex), anti-vimentin and anti-Ki67 antibodies was performed on paraffin sections, using a NexES automated slide staining system (Ventana Medical Systems, Tucson, Ariz.). Cell proliferation (Ki67 positivity) was quantified as % of positive cancer cells per high power field averaged across 12 images from 2 primary tumors per cell line.

[6] = system: HCT-8/E11 cells; experiment: Assessment of cell numbers (viable cells, serum-free); format: cell-based, human
Protocol: To assess the effect of rNRG-β1 or CM on cell numbers, a total of 9 wells of seeded cells were counted for each condition (triplicate samples×3 countings). First, 1×10^4 CRC cells were seeded on a 6-well plate in DMEM supplemented with 10% FCS. After 24 hours, cells were treated as indicated under serum-free conditions; medium was changed every 3 days. The total number of viable cells in each well was counted with a Countess automated cell counter (Invitrogen) every three days for 9 days; trypan blue staining was used for exclusion of dead cells.

[7] = system: PARP; experiment: Western blot of PARP cleavage in HCT 116; format: cell-based, human; settings: HCT 116, 10 ng/ml, 6 hours, compared to controls
Protocol: as §3, with “Samples were run on NuPAGE 4%-20% Bis-Tris gradient gels (Invitrogen), transferred to polyvinylidene fluoride membranes, blocked in 5% nonfat milk in PBS or 4% bovine serum albumin (BSA) in PBS for phosphorylated proteins with 0.5% Tween-20, and immunostained.” left out

[8] = system: HCT 116 cells; experiment: Single cell collagen invasion assay, HCT 116; format: cell-based, human; settings: HCT 116, 10 ng/ml, 24 hours, P=0.007
Protocol: as §1, §2

[9] = system: SW480 cells; experiment: Single cell collagen invasion assay, SW480; format: cell-based, human; settings: SW480, 10 ng/ml, 24 hours, P=0.003
Protocol: as §1, §2

[10] = system: BAD; experiment: Western blot of S136 p-BAD in HCT-8/E11; format: cell-based, human; settings: rNRG-β1-treated HCT-8/E11
Protocol: as §3, with “Samples were run on NuPAGE 4%-20% Bis-Tris gradient gels (Invitrogen), transferred to polyvinylidene fluoride membranes, blocked in 5% nonfat milk in PBS or 4% bovine serum albumin (BSA) in PBS for phosphorylated proteins with 0.5% Tween-20, and immunostained.” left out

[11] = system: BAX/BCL-2; experiment: Western blot of BAX and BCL-2 expression in HCT-8/E11; format: cell-based, human; settings: HCT-8/E11, 10 ng/ml, 6 hours
Protocol: as §3, with “Samples were run on NuPAGE 4%-20% Bis-Tris gradient gels (Invitrogen), transferred to polyvinylidene fluoride membranes, blocked in 5% nonfat milk in PBS or 4% bovine serum albumin (BSA) in PBS for phosphorylated proteins with 0.5% Tween-20, and immunostained.” left out

[12] = system: HER2; experiment: Western blot of Y1196 and Y1248 p-HER2 in HCT-8/E11; format: cell-based, human; settings: 10 ng/ml, 15 minutes
Protocol: as §3, with “Samples were run on NuPAGE 4%-20% Bis-Tris gradient gels (Invitrogen), transferred to polyvinylidene fluoride membranes, blocked in 5% nonfat milk in PBS or 4% bovine serum albumin (BSA) in PBS for phosphorylated proteins with 0.5% Tween-20, and immunostained.” left out

Molecule: Cn1ncc(Cl)c1-c1cc(C(=O)N[C@H](CN)Cc2ccc(F)c(F)c2)oc1Cl [GSK2141795]
CM^BM-MSC-induced invasion ([1]; 0.1 μM, 24 hours): able to block
CM^BM-MSC-induced invasion ([1]; 1 μM, 24 hours): able to block

Molecule: CS(=O)(=O)CCNCc1ccc(-c2ccc3ncnc(Nc4ccc(OCc5cccc(F)c5)c(Cl)c4)c3c2)o1 [lapatinib]
decrease in CM^BM-MSC-induced HER3 activation (Y1289 p-HER3) [2]: 72%
CM^BM-MSC-induced invasion (invasion index) [1]: blocked
CM^BM-MSC-induced morphological response (factor shape) [1]: blocked
reduction of AKT activation (S473 p-AKT) in CM^BM-MSC-treated cells [3]: 82%

Y1289 p-HER3 in HCT-8/E11 cells, Western blot, 15 minutes [4]: 0.25 ng/mL
Molecule: Recombinant human NRG-β1 EGF domain (from UniProt Q02297 177-241) (ligand)

Molecule: pertuzumab: recombinant, humanized mAb that specifically binds HER2 and prevents HER2 homo- and HER2/HER3 heterodimerisation
decrease in CM^BM-MSC-induced HER3 activation (Y1289 p-HER3) [2]: 67%
BM-MSC-enhanced tumorigenesis of HCT-8/E11 cells ([5]; 600 μg/mouse i.p.): significantly delayed
tumor weight ([5]; 600 μg/mouse i.p. three times a week, P=0.004): decreased
tumor volume ([5]; 600 μg/mouse i.p. three times a week, P=0.035): reduced
Ki67 proliferation index, difference vehicle vs treatment ([5]; 95% CI −4.8 to 15.2, P=0.276): 5.2
Ki67 proliferation index ([5]; viable areas of resected xenografts): did not significantly affect
CM^T-MC-increased invasion ([1]; HCT-8/E11, 24 hours, pertuzumab 25 μg/ml): partly inhibited
CM^BM-MSC-induced invasion (invasion index) [1]: blocked
CM^BM-MSC-induced morphological response (factor shape) [1]: blocked
CM^BM-MSC-induced CRC cell survival (total number of viable cells) ([6]; pertuzumab 25 μg/ml, HCT-8/E11): significantly decreased
number of viable cells under control conditions ([6]; pertuzumab 25 μg/ml, no CM): no statistically significant effect
CM^T-MC-increased growth of HCT-8/E11 cells (trophic effect) ([6]; pertuzumab 25 μg/ml, serum-free): blocked
reduction of AKT activation (S473 p-AKT) in CM^BM-MSC-treated cells [3]: 79%

B1: rNRG-β1: Recombinant human NRG-β1 EGF domain supplied by R&D Systems (protein)
chain: SHLVKCAEKEKTFCVNGGECFMVKDLSNPSRYLCKCPNEFTGDRCQNYVMASFYKHLGIEFMEAE
PARP cleavage [7]: reduced
concentration at which phosphorylation of HER3 was significant ([2]; HCT-8/E11, 15 minutes): 0.25 ng/mL
morphological changes and invasion into a collagen matrix [8]: induced
morphological changes and invasion into a collagen matrix [9]: induced
levels of S136 p-BAD [10]: higher levels
morphological changes and invasion into a collagen matrix ([1]; HCT-8/E11, 10 ng/ml, 24 hours, P=0.049): induced
BAX/BCL-2 ratio [11]: reduced
HER2 activation [12]: induced HER2 activation
HCT-8/E11 cell number ([6]; 0.1, 1, 10 ng/ml, serum-free, P=0.002 at 10 ng/ml): dose-dependent increase
levels of S473 p-AKT ([3]; rNRG-β1-treated HCT-8/E11): higher levels
